{
  "source": "paper PMC3816687",
  "about": "“Relationships between Cargo, Cell Penetrating Peptidesand Cell Type for Uptake of Non-Covalent Complexes into Live Cells” (Pharmaceuticals, 2013)",
  "key": {"[1]": {"test_system": "COS-7 cells", "assay": "Degradation of CPPs by secreted and surface bound proteases of COS-7 cells", "conditions": "60 min incubation with 0.3 × 10^6 intact cells per well, PBS, 37 °C, 5% CO2, RP18 HPLC, 220 nm", "method": "(§1) In a 6-well-plate with 0.3 × 10^6 cells per well the different cell types were cultivated overnight under optimized conditions. Then medium was removed by aspiration (adherent cell) or centrifugation (suspension cells) and washed cells were incubated with CPPs in phosphate buffer solution (PBS). Incubation was performed under the same conditions as the transduction of complexes with the cargo for 1 h at 37 °C in a humidified atmosphere containing 5% CO2. After 15, 30, 45 and 60 min samples of 200 µL were taken and the proteolytic reaction was stopped by addition of 50 µL 37 perc. HCl. After freezing and lyophilization samples were analyzed by analytical high performance liquid chromatography (HPLC), using a RP18 column (Vydac 218TP). In case of MPGβ, for elution a gradient was used from 10% acetonitrile and 90% water, both containing 0.1% trifluoroacetic acid to 60% acetonitrile and 40% water in 50 min. […] The flow rate was 1.0 ml/min and detection was performed at 220 nm."}, "[2]": {"test_system": "NB-4 cells", "assay": "Degradation of CPPs by proteases of NB-4 cells", "format": "in vitro ADME, Human", "conditions": "60 min incubation with 0.3 × 10^6 intact cells per well, PBS, 37 °C, 5% CO2, RP18 HPLC, 220 nm", "method": "as §1"}, "[3]": {"test_system": "most of the cells investigated", "assay": "Proteolytic stability of CPPs compared over the cells investigated", "format": "in vitro ADME", "conditions": "incubation with intact cells up to 60 min, PBS, 37 °C, HPLC", "method": "as §1"}, "[4]": {"test_system": "Jurkat cells", "assay": "Internalization of β-galactosidase into Jurkat cells, X-gal staining", "format": "cell-based, Human", "conditions": "complexes of β-galactosidase and CPP, ratio 1:10, X-Gal staining", "method": "(§2) A detailed description of formation of complexes with peptides and proteins is given in a previous publication. Briefly, cargo proteins (ATTO488-BSA, MW ≈ 68 kDa, β-galactosidase, MW ≈ 540 kDa) and the calculated volume of stock solution of CPPs or JBS-Proteoducin were dissolved separately in 100 µL of 1× PBS). Both solutions were thoroughly mixed by repeated pipetting. The mixture was incubated for 30 minutes at 37 °C to achieve complex formation. The molar ratio of cargo to CPPs was usually calculated to 1:10. For internalization of higher amounts of cargo, both the amount of protein and stock solution of CPP or cocktail, respectively, were multiplied. Complexes of the enzyme β-galactosidase and JBS-Proteoducin were formed from 1 µg β-galactosidase and 1 µL stock solution of JBS-Proteoducin under the described conditions.\nThe thoroughly washed cell pellet was suspended in 200 µL of complex solution followed by 400 µL of serum free medium, gently mixed and transferred into 24-well plates. […] After addition of 1.4 mL of complete culture medium incubation was continued at 37 °C for approx. 2 h in a humidified atmosphere containing 5% CO2. The cells were washed by spinning down twice with PBS, three times with glycine buffer (pH 3.0) and twice with PBS.\n(§3) Staining of the cells took place in multiwell-plates. Jurkat and Leishmania cells were stained according to the instructions described in [24], using a staining solution containing potassium ferrocyanide, potassium ferricyanide and X-gal. Leishmania cells were stained after finishing the above described transduction protocol. For Jurkat cells the staining was performed after transferring cells from spinning tubes used in the last washing step to 24-well plates. Cells were incubated in staining solution overnight and directly observed in a microscope using a 400-fold magnification."}, "[5]": {"test_system": "Leishmania tarentolae", "assay": "Internalization of β-galactosidase into Leishmania tarentolae, X-gal staining", "format": "cell-based", "conditions": "molar ratios 1:5, 1:10, 1:20 of cargo and CPP", "method": "as §2\nFor transduction cells in an early stage of development were used. To this end stock cultures were diluted 1:10 the day before the experiment into 10 mL of culture medium in 25 cm^2-ventilated tissue culture flasks and were incubated overnight in the dark at 26 °C for optimal proliferation. Cell suspensions with an OD of 1.2 (ca. 4 × 10^7 cells/mL) were used for transduction. The cells were thoroughly washed twice with PBS (5 mL each) by centrifugation (2,000 × g, 3 min). Pellets were resuspended in the original volume of PBS containing 0.1% BSA and aliquoted into 24-well plates. Four hundred µL of cell suspension were used per experiment. Two hundred µL of the complex solutions were added to these cells and mixtures were incubated for 1 h at 26 °C in the dark with gentle agitation. Successively, 1 mL of complete growth medium (LEXSY BHI) was added per sample and incubation was continued at 26 °C for 2 h. Cells were washed twice with PBS (2 mL each) by centrifugation (2,000 × g, 3 min) prior to analysis of transduction.\nas §3"}, "[6]": {"test_system": "HeLa cells", "assay": "Membrane integrity, CytoTox-Glo assay, HeLa cells", "format": "cell-based, Human", "conditions": "low concentrations (9.4 µM), 1 h at 37 °C in serum-free medium, triplicates", "method": "(§4) Cells were cultured under standard conditions and treated in serum-free medium for 1 h at 37 °C with different CPPs and the cocktail. After removal of CPPs and repeated washings the membrane integrity of the cells was estimated by the bioluminescence test CytoTox-Glo measuring the release of a cytosolic dead-cell protease. The CytoTox-Glo assay was performed according to the supplier’s instructions and adapted to 96-well plates. Bioluminescence was estimated by a luminescence plate reader. Each value was measured in triplicates with an SD of ± 1.2."}, "[7]": {"test_system": "NB-4 cells", "assay": "Membrane integrity, CytoTox-Glo assay, NB-4 cells", "format": "cell-based, Human", "conditions": "low concentrations (9.4 µM), 1 h at 37 °C in serum-free medium, triplicates", "method": "as §4"}, "[8]": {"test_system": "different cell lines", "assay": "Membrane integrity, CytoTox-Glo assay, different cell lines", "format": "cell-based", "conditions": "up to 141 µM, 1 h at 37 °C in serum-free medium, triplicates", "method": "as §4"}, "[9]": {"test_system": "Leishmania tarentolae", "assay": "Cytotoxicity test for Leishmania tarentolae (morphology and motility)", "format": "cell-based", "method": "Leishmania cells were cultivated as described previously, resuspended in PBS and treated with increasing concentrations of cocktails and CPPs for 1 h. Cytotoxic effects were monitored by changes in morphology and motility observed using a microscope at 400-fold magnification."}, "[10]": {"test_system": "HeLa cells", "conditions": "non-covalent complexes, X-Gal staining; cited from earlier work", "source_text": "HeLa cells: As shown in our preceding publication, the CPP cocktail JBS-Proteoducin can internalize enzymatic active β-galactosidase into all cell types investigated, including difficult to transfect Kasumi-1 cells. The active enzyme was transported not only into all types of cells but all of the observed cells are also positively stained using the β-galactosidase substrate 5-bromo-4-chloro-indolyl-β-D-galactopyranoside (X-Gal)."}, "[11]": {"test_system": "Leishmania tarentolae", "conditions": "non-covalent complexes; cited from earlier work", "source_text": "Formation of non-covalent complexes between cargo and CPP occurs by optimized interaction of the CPP with the surface of the cargo. These complexes are stabilized by ionic, polar, π-electron-cation, or hydrophobic interactions, hydrogen bonds and common interactions between molecules. Thus, for the same cell type different cargoes show different rank orders for CPPs."}, "[12]": {"test_system": "HeLa cells", "conditions": "non-covalent complexes; cited from earlier work", "method": "Table 4 Intracellular amounts and concentrations. Internalized amounts are calculated from fluorescence intensities in the homogenate directly or after separation by SDS-PAGE. In the case of nucleoside triphosphates quantification was performed by fluorescence spectrometry. Estimation of cell volumes allows the calculation of intracellular concentrations. […] The rank order for the uptake of β-galactosidase into HeLa cells: JBS-Proteoducin > MPGα ≥ MPGβ > CAD-2 >> CPPP-2 // HIV-TAT = penetratin provides evidence for different requirements of enzyme and nucleotide for co ..."}},
  "note": "“Also recorded” adds a separate entry of the source.",
  "data": [
    {"substance": "GLWRALWRLLRSLWRLLWKA-NH-CH2-CH2-SH [CAD-2, des-acetyl, Lys^19-CADY, cell penetrating peptide, 6 positive charges]", "values": [
      {"measurement": "stability against proteolytic cleavage by COS-7 cells (HPLC peak)", "setting": "[1]", "value": "remains stable"},
      {"measurement": "stability against proteolytic cleavage by NB-4 cells (HPLC peak)", "setting": "[2]", "value": "remains stable"},
      {"measurement": "relative proteolytic stability among the CPPs", "setting": "[3]", "value": "nearly unaffected; also recorded: most stable"},
      {"measurement": "rank order for internalization of β-galactosidase into Jurkat cells", "setting": "[4]", "value": "JBS-Proteoducin > MPGβ > MPGα > CAD-2 >> CPPP-2"},
      {"measurement": "rank order for uptake efficiency of β-galactosidase into Leishmania tarentolae", "setting": "[5]", "value": "CAD-2 > MPGα > Histone > MPGβ >> penetratin ≥ HIV-TAT ≥ CPPP-2"},
      {"measurement": "membrane integrity of HeLa cells (release of dead-cell protease)", "setting": "[6]", "value": "sensitive"},
      {"measurement": "membrane integrity of NB-4 cells (release of dead-cell protease)", "setting": "[7]", "value": "sensitive"},
      {"measurement": "reduction of membrane integrity with increasing concentrations", "setting": "[8]", "value": "very low"},
      {"measurement": "Cytotoxicity in Leishmania tarentolae", "setting": "[9]", "value": "≤ 25", "unit": "µM"},
      {"measurement": "rank order for internalization of β-galactosidase into HeLa cells", "setting": "[10]", "value": "JBS-Proteoducin > MPGα ≥ MPGβ > CAD-2 >> CPPP-2 // HIV-TAT, penetratin"},
      {"measurement": "rank order for transport of ATTO488-labeled BSA into Leishmania", "setting": "[11]", "value": "MPGα >> CAD-2 > histone"},
      {"measurement": "rank order of uptake efficiency of ATTO488-dUTP into HeLa cells", "setting": "[12]", "value": "JBS-Nucleoducin > CAD-2 > MPGα ≥ MPGβ > penetratin >> CPP-2"}
    ]}
  ]
}
